The values that follow come from US12404289B2 (Gilead Sciences, Inc., priority 2020, dated 2025).

The term EC50 denotes the concentration needed to bring the measured effect to its halfway point.

The subject of experiment [1] is Respiratory syncytial virus (RSV) strain A2. The experiment can be described thus: Hep-2 RSV2 384-well assay (EC50-HEP2-384). As to conditions: human respiratory syncytial virus, HEp-2, 96 h, HEp-2 cells, RSV A2, MOI=4, 4 days, Table 3. Format: cell-based.
The next experiment has as its system SARS-CoV-2. Briefly: SARS-CoV-2 antiviral assay (A549-hACE2, Nano luciferase). To be noted: Severe acute respiratory syndrome coronavirus 2, 48 h, A549-hACE2 cells, SARS-CoV2-Nano, MOI 0.025, 48 h; Table 4; read-out: EC50 SARS CoV2. Format: cell-based.

Take `C[C@H](NP(=O)(OC[C@H]1O[C@@](C#N)(c2ccc3c(N)ncnn23)[C@H](O)[C@@H]1O)Oc1ccc(C(C)(C)C)cc1)C(=O)OC1CCC1` (stereo partly drawn) [Example 31, Cyclobutyl ((((2R,3S,4R,5R)-5-(4-aminopyrrolo[2,1-f][1,2,4]triazin-7-yl)-5-cyano-3,4-dihydroxytetrahydrofuran-2-yl)methoxy)(4-(tert-butyl)phenoxy)phosphoryl)-L-alaninate]: the EC50 in experiment [1] stood at 53.2 nM; with SARS-CoV-2, 250 nM.
For the compound `CC(=O)O[C@H]1[C@@H](OC(C)=O)[C@](C#N)(c2ccc3c(N)ncnn23)O[C@@H]1CO[P@@](=O)(N[C@@H](C)C(=O)O[C@H]1CCOC1)Oc1ccc(C(C)(C)C)cc1` [Example 37, (2R,3R,4R,5R)-2-(4-aminopyrrolo[2,1-f][1,2,4]triazin-7-yl)-5-((((4-(tert-butyl)phenoxy)(((S)-1-oxo-1-(((S)-tetrahydrofuran-3-yl)oxy)propan-2-yl)amino)phosphoryl)oxy)methyl)-2-cyanotetrahydrofuran-3,4-diyl Diacetate], the EC50 amounted to 187 nM in experiment [1] and 282 nM in the experiment on SARS-CoV-2.
In the same order, the values of `CCOC(=O)[C@H](C)NP(=O)(OC[C@H]1O[C@@](C#N)(c2ccc3c(N)ncnn23)[C@H](OC(=O)C(C)C)[C@@H]1OC(=O)C(C)C)Oc1ccc(C23CC(C2)C3)cc1` (stereo partly drawn) [Example 43, (2R,3R,4R,5R)-2-(4-aminopyrrolo[2,1-f][1,2,4]triazin-7-yl)-5-((((4-(bicyclo[1.1.1]pentan-1-yl)phenoxy)(((S)-1-ethoxy-1-oxopropan-2-yl)amino)phosphoryl)oxy)methyl)-2-cyanotetrahydrofuran-3,4-diyl bis(2-methylpropanoate)] are 62.8 nM and 168 nM.
For the compound `CC(C)C(=O)O[C@H]1[C@@H](OC(=O)C(C)C)[C@](C#N)(c2ccc3c(N)ncnn23)O[C@@H]1COP(=O)(N[C@@H](C)C(=O)OC1CC(C)(C)C1)Oc1ccc(C(C)(C)C)cc1` (stereo partly drawn) [Example 94, (2R,3R,4R,5R)-2-(4-aminopyrrolo[2,1-f][1,2,4]triazin-7-yl)-5-((((4-(tert-butyl)phenoxy)(((S)-1-(3,3-dimethylcyclobutoxy)-1-oxopropan-2-yl)amino)phosphoryl)oxy)methyl)-2-cyanotetrahydrofuran-3,4-diyl bis(2-methylpropanoate)], the EC50 was 84.5 nM in experiment [1] and 370 nM in the experiment with SARS-CoV-2.
On to `CCC(=O)O[C@H]1[C@@H](OC(=O)CC)[C@](C#N)(c2ccc3c(N)ncnn23)O[C@@H]1COP(=O)(N[C@@H](C)C(=O)OC1CC(C)(C)C1)Oc1ccc(C(C)(C)C)cc1` (stereo partly drawn) [Example 95, (2R,3R,4R,5R)-2-(4-aminopyrrolo[2,1-f][1,2,4]triazin-7-yl)-5-((((4-(tert-butyl)phenoxy)(((S)-1-(3,3-dimethylcyclobutoxy)-1-oxopropan-2-yl)amino)phosphoryl)oxy)methyl)-2-cyanotetrahydrofuran-3,4-diyl Dipropionate], for which the half-maximal effective concentration (EC50) is 61.8 nM in experiment [1] and 264 nM in the experiment with SARS-CoV-2.
On to `CC(=O)O[C@H]1[C@@H](OC(C)=O)[C@](C#N)(c2ccc3c(N)ncnn23)O[C@@H]1COP(=O)(N[C@@H](C)C(=O)OC1CC2(CCCC2)C1)Oc1ccc(C(C)(C)C)cc1` (stereo partly drawn) [Example 98a, (2R,3R,4R,5R)-2-(4-aminopyrrolo[2,1-f][1,2,4]triazin-7-yl)-5-((((4-(tert-butyl)phenoxy)(((S)-1-oxo-1-(spiro[3.4]octan-2-yloxy)propan-2-yl)amino)phosphoryl)oxy)methyl)-2-cyanotetrahydrofuran-3,4-diyl Diacetate], for which the EC50 in experiment [1] is 62.1 nM; in the experiment with SARS-CoV-2, 176 nM.
With `C[C@H](NP(=O)(OC[C@H]1O[C@@](C#N)(c2ccc3c(N)ncnn23)[C@H](O)[C@@H]1O)Oc1ccc(C(C)(C)C)cc1)C(=O)OCC1CC1` (stereo partly drawn) [Example 101a, Cyclopropyl methyl ((((2R,3S,4R,5R)-5-(4-aminopyrrolo[2,1-f][1,2,4]triazin-7-yl)-5-cyano-3,4-dihydroxytetrahydrofuran-2-yl)methoxy)(4-(tert-butyl)phenoxy)phosphoryl)-L-alaninate], the results for the half-maximal effective concentration (EC50) (in experiment [1]; in the experiment with SARS-CoV-2) were 41.1 nM and 148 nM, respectively.
On to `CCC(=O)O[C@H]1[C@@H](OC(=O)CC)[C@](C#N)(c2ccc3c(N)ncnn23)O[C@@H]1COP(=O)(N[C@@H](C)C(=O)OCC1CC1)Oc1ccc(C(C)(C)C)cc1` (stereo partly drawn) [Example 103b, (2R,3R,4R,5R)-2-(4-aminopyrrolo[2,1-f][1,2,4]triazin-7-yl)-5-((((4-(tert-butyl)phenoxy)(((S)-1-(cyclopropylmethoxy)-1-oxopropan-2-yl)amino)phosphoryl)oxy)methyl)-2-cyanotetrahydrofuran-3,4-diyl Dipropionate], for which the figures for the EC50 (in experiment [1]; with SARS-CoV-2) were 42 nM and 363 nM, respectively.
As to `CCC(=O)O[C@H]1[C@@H](OC(=O)CC)[C@](C#N)(c2ccc3c(N)ncnn23)O[C@@H]1COP(=O)(N[C@@H](C)C(=O)OCCC(C)(C)CC)Oc1ccccc1` (stereo partly drawn) [Example 105a, (2R,3R,4R,5R)-2-(4-aminopyrrolo[2,1-f][1,2,4]triazin-7-yl)-2-cyano-5-((((((S)-1-((3,3-dimethylpentyl)oxy)-1-oxopropan-2-yl)amino)(phenoxy)phosphoryl)oxy)methyl)tetrahydrofuran-3,4-diyl Dipropionate], the EC50 in experiment [1] amounted to 54.6 nM; with SARS-CoV-2, 133 nM.
In the same order, the values of `CCC(C)(C)CCOC(=O)[C@H](C)NP(=O)(OC[C@H]1O[C@@](C#N)(c2ccc3c(N)ncnn23)[C@H](OC(C)=O)[C@@H]1OC(C)=O)Oc1ccccc1` (stereo partly drawn) [Example 106a, (2R,3R,4R,5R)-2-(4-aminopyrrolo[2,1-f][1,2,4]triazin-7-yl)-2-cyano-5-((((((S)-1-((3,3-dimethylpentyl)oxy)-1-oxopropan-2-yl)amino)(phenoxy)phosphoryl)oxy)methyl)tetrahydrofuran-3,4-diyl Diacetate] are 46.8 nM and 83.1 nM.
As for `CCC(=O)O[C@H]1[C@@H](OC(=O)CC)[C@](C#N)(c2ccc3c(N)ncnn23)O[C@@H]1COP(=O)(N[C@@H](C)C(=O)OCC(C)C)Oc1ccc(C(C)(C)C)cc1` (stereo partly drawn) [Example 138, (2R,3R,4R,5R)-2-(4-aminopyrrolo[2,1-f][1,2,4]triazin-7-yl)-5-((((4-(tert-butyl)phenoxy)(((S)-1-isobutoxy-1-oxopropan-2-yl)amino)phosphoryl)oxy)methyl)-2-cyanotetrahydrofuran-3,4-diyl Dipropionate], the EC50 in experiment [1] came out at 36.6 nM; with SARS-CoV-2 it was 342 nM.
Consider `CC(=O)O[C@H]1[C@@H](OC(C)=O)[C@](C#N)(c2ccc3c(N)ncnn23)O[C@@H]1COP(=O)(N[C@@H](C)C(=O)OCC1CCC1)Oc1ccccc1` (stereo partly drawn) [Example 145, (2R,3R,4R,5R)-2-(4-aminopyrrolo[2,1-f][1,2,4]triazin-7-yl)-2-cyano-5-((((((S)-1-(cyclobutylmethoxy)-1-oxopropan-2-yl)amino)(phenoxy)phosphoryl)oxy)methyl)tetrahydrofuran-3,4-diyl Diacetate], for which the EC50 in experiment [1] was found to be 35 nM; in the experiment on SARS-CoV-2 it was 101 nM.
In the same order, the values of `CCC(C)(C)CCOC(=O)[C@H](C)NP(=O)(OC[C@H]1O[C@@](C#N)(c2ccc3c(N)ncnn23)[C@H](O)[C@@H]1O)Oc1ccc(C(C)(C)C)cc1` (stereo partly drawn) [Example 154, 3,3-dimethylpentyl ((((2R,3S,4R,5R)-5-(4-aminopyrrolo[2,1-f][1,2,4]triazin-7-yl)-5-cyano-3,4-dihydroxytetrahydrofuran-2-yl)methoxy)(4-(tert-butyl)phenoxy)phosphoryl)-L-alaninate] are 105 nM and 330 nM.
Regarding `C[C@H](NP(=O)(OC[C@H]1O[C@@](C#N)(c2ccc3c(N)ncnn23)[C@H](O)[C@@H]1O)Oc1ccc(C(C)(C)C)cc1)C(=O)OCC1CCCCC1` (stereo partly drawn) [Example 156, Cyclohexylmethyl ((((2R,3S,4R,5R)-5-(4-aminopyrrolo[2,1-f][1,2,4]triazin-7-yl)-5-cyano-3,4-dihydroxytetrahydrofuran-2-yl)methoxy)(4-(tert-butyl)phenoxy)phosphoryl)-L-alaninate], the EC50 stood at 195 nM in experiment [1] and 363 nM in the experiment on SARS-CoV-2.
Regarding `CCC(C)(C)CCOC(=O)[C@H](C)NP(=O)(OC[C@H]1O[C@@](C#N)(c2ccc3c(N)ncnn23)[C@H](OC(C)=O)[C@@H]1OC(C)=O)Oc1ccc(C(C)(C)C)cc1` (stereo partly drawn) [Example 159, (2R,3R,4R,5R)-2-(4-aminopyrrolo[2,1-f][1,2,4]triazin-7-yl)-5-((((4-(tert-butyl)phenoxy)(((S)-1-((3,3-dimethylpentyl)oxy)-1-oxopropan-2-yl)amino)phosphoryl)oxy)methyl)-2-cyanotetrahydrofuran-3,4-diyl Diacetate], the values for the EC50 (in experiment [1]; in the experiment on SARS-CoV-2) were 79.3 nM and 369 nM, respectively.
As for `CC(=O)O[C@H]1[C@@H](OC(C)=O)[C@](C#N)(c2ccc3c(N)ncnn23)O[C@@H]1COP(=O)(N[C@@H](C)C(=O)OCC1CCCCC1)Oc1ccc(C(C)(C)C)cc1` (stereo partly drawn) [Example 163, (2R,3R,4R,5R)-2-(4-aminopyrrolo[2,1-f][1,2,4]triazin-7-yl)-5-((((4-(tert-butyl)phenoxy)(((S)-1-(cyclohexylmethoxy)-1-oxopropan-2-yl)amino)phosphoryl)oxy)methyl)-2-cyanotetrahydrofuran-3,4-diyl Diacetate], the EC50 was determined as 68 nM in experiment [1] and 378 nM in the experiment on SARS-CoV-2.
For `C[C@@H](CC(=O)OC1CCC1)NP(=O)(OC[C@H]1O[C@@](C#N)(c2ccc3c(N)ncnn23)[C@H](O)[C@@H]1O)Oc1ccc(C(C)(C)C)cc1` (stereo partly drawn) [Example 165, cyclobutyl (3S)-3-(((((2R,3S,4R,5R)-5-(4-aminopyrrolo[2,1-f][1,2,4]triazin-7-yl)-5-cyano-3,4-dihydroxytetrahydrofuran-2-yl)methoxy)(4-(tert-butyl)phenoxy)phosphoryl)amino)butanoate], the EC50 in experiment [1] stood at 5000 nM; with SARS-CoV-2, 10000 nM.
